Measurements taken from patent publication US20070213339A1 (Bayer Pharmaceuticals Corporation, priority 2004, published 2007).

Test system: Colo205 human colon carcinoma cell line
Test: In vitro tumor cell proliferation assay (MTS, CellTiter 96 Aqueous One Solution)
Format: cell-based
Conditions: COLO 205, Colo205 cells, 72 hours compound exposure, MTS absorbance at 490 nm, read-out: IC50 (concentration of test compound required to inhibit proliferation of 50% of the cells)
Summary of the method: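 Proliferation measured as MTS tetrazolium reduction (490 nm) after 72 h compound exposure at 37 °C. Cells plated at 2000 per well in serum-supplemented RPMI-1640; duplicate 5-point dilutions topping out at 10-20 μM. Percent inhibition versus untreated and cell-free wells, IC50 derived by linear regression.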

| SMILES | IC50 [nM] |
| --- | --- |
| O=C(O)c1cn(-c2ccc(CN3CCCC3)cc2F)c2c(Cl)c(N3CCN(c4ccc(Cl)cc4)CC3)c(F)cc2c1=O [Example 42, 8-chloro-7-[4-(4-chlorophenyl)piperazin-1-yl]-6-fluoro-1-[2-fluoro-4-(pyrrolidin-1-ylmethyl)phenyl]-4-oxo-1,4-dihydroquinoline-3-carboxylic acid] | < 500 |
| CON(C)Cc1ccc(-n2cc(C(=O)O)c(=O)c3cc(F)c(N4CCN(c5ccccn5)CC4)c(Cl)c32)cc1 [Example 49, 8-chloro-6-fluoro-1-(4-{[methoxy(methyl)-amino]methyl}phenyl)-4-oxo-7-(4-pyridin-2-ylpiperazin-1-yl)-1,4-dihydroquinoline-3-carboxylic acid] | 2000 to 20000 |
| CCN(CC)Cc1ccc(-n2cc(C(=O)O)c(=O)c3cc(F)c(N4CCN(c5cccc(Cl)c5)CC4)c(OC)c32)cc1 [Example 115, 7-[4-(3-chlorophenyl)piperazin-1-yl]-1-{4-[(diethylamino)methyl]phenyl}-6-fluoro-8-methoxy-4-oxo-1,4-dihydroquinoline-3-carboxylic acid] | < 500 |
| COc1c(N2CCN(c3ccccn3)CC2)c(F)cc2c(=O)c(C(=O)O)cn(-c3ccc(CN(C)C)cc3)c12 [Example 92, 1-{4-[(dimethylamino)methyl]phenyl}-6-fluoro-8-methoxy-4-oxo-7-(4-pyridin-2-ylpiperazin-1-yl)-1,4-dihydroquinoline-3-carboxylic acid] | < 500 |
| CN(Cc1ccc(-n2cc(C(=O)O)c(=O)c3cc(F)c(N4CCN(c5ccccn5)CC4)c(Cl)c32)cc1)C1CCCCC1 [Example 61, 8-chloro-1-(4-{[cyclohexyl(methyl)amino]-methyl}phenyl)-6-fluoro-4-oxo-7-(4-pyridin-2-ylpiperazin-1-yl)-1,4-dihydroquinoline-3-carboxylic acid] | < 500 |
| N#Cc1ccc(N2CCN(c3c(F)cc4c(=O)c(C(=O)O)cn(-c5ccc(CN6CCCC6)cc5F)c4c3Cl)CC2)cc1 [Example 48, 8-chloro-7-[4-(4-cyanophenyl)piperazin-1-yl]-6-fluoro-1-[2-fluoro-4-(pyrrolidin-1-ylmethyl)phenyl]-4-oxo-1,4-dihydroquinoline-3-carboxylic acid] | < 500 |
| CCN(CC)Cc1ccc(-n2cc(C(=O)O)c(=O)c3cc(F)c(N4CCN(c5ccccc5OC)CC4)c(OC)c32)cc1 [Example 110, 1-{4-[(diethylamino)methyl]phenyl}-6-fluoro-8-methoxy-7-[4-(2-methoxyphenyl)piperazin-1-yl]-4-oxo-1,4-dihydroquinoline-3-carboxylic acid] | < 500 |
| CCN(CC)Cc1ccc(-n2cc(C(=O)O)c(=O)c3cc(F)c(N4CCN(c5ccc(Cl)cc5)CC4)c(OC)c32)cc1 [Example 118, 7-[4-(4-chlorophenyl)piperazin-1-yl]-1-{4-[(diethylamino)methyl]phenyl}-6-fluoro-8-methoxy-4-oxo-1,4-dihydroquinoline-3-carboxylic acid] | < 500 |
| O=C(O)c1cn(-c2ccc(CNC3CCCC3)cc2)c2c(Cl)c(N3CCN(c4ccccn4)CC3)c(F)cc2c1=O [Example 56, 8-chloro-1-{4-[(cyclopentylamino)-methyl]phenyl}-6-fluoro-4-oxo-7-(4-pyridin-2-ylpiperazin-1-yl)-1,4-dihydroquinoline-3-carboxylic acid] | < 500 |
| CCN(CC)Cc1ccc(-n2cc(C(=O)O)c(=O)c3cc(F)c(N4CCN(c5ccc(F)cc5F)CC4)c(OC)c32)cc1 [Example 111, 1-{4-[(diethylamino)methyl]phenyl}-7-[4-(2,4-difluorophenyl)piperazin-1-yl]-6-fluoro-8-methoxy-4-oxo-1,4-dihydroquinoline-3-carboxylic acid] | 500 to 2000 |

Continued, values first:

| IC50 [nM] | SMILES |
| --- | --- |
| < 500 | CCN(CC)Cc1ccc(-n2cc(C(=O)O)c(=O)c3cc(F)c(N4CCN(c5ccc(Cl)cc5)CC4)c(OC(F)(F)Cl)c32)cc1 [Example 164, 8-[chloro(difluoro)methoxy]-7-[4-(4-chlorophenyl)piperazin-1-yl]-1-{4-[(diethylamino)methyl]phenyl}-6-fluoro-4-oxo-1,4-dihydroquinoline-3-carboxylic acid] |
| < 500 | CCN(C)Cc1ccc(-n2cc(C(=O)O)c(=O)c3cc(F)c(N4CCN(c5ncccn5)CC4)c(OC(F)(F)Cl)c32)cc1 [Example 165, 8-[chloro(difluoro)methoxy]-1-(4-{[ethyl(methyl)amino]methyl}phenyl)-6-fluoro-4-oxo-7-(4-pyrimidin-2-ylpiperazin-1-yl)-1,4-dihydroquinoline-3-carboxylic acid] |
| < 500 | O=C(O)c1cn(-c2ccc(CN3CCCC3)c(F)c2)c2c(Cl)c(N3CCN(c4ccc(F)cc4)CC3)c(F)cc2c1=O [Example 186, 8-chloro-7-[4-(4-fluorophenyl)-piperazine-1-yl]-6-fluoro-1-(3-fluoro-4-pyrrolidin-1-ylmethyl-phenyl)-4-oxo-1,4-dihydroquinoline-3-carboxylic acid] |
| < 500 | N#Cc1ccc(N2CCN(c3c(F)cc4c(=O)c(C(=O)O)cn(-c5ccc(CN6CCCC6)c(F)c5)c4c3Cl)CC2)cc1 [Example 188, 8-chloro-7-[4-(4-cyanophenyl)-piperazine-1-yl]-6-fluoro-1-(3-fluoro-4-pyrrolidin-1-ylmethyl-phenyl)-4-oxo-1,4-dihydroquinoline-3-carboxylic acid] |
| 500 to 2000 | O=C(O)c1cn(-c2cccc(CN3CCCCC3)c2)c2c(OC(F)(F)F)c(N3CCN(c4ccc(F)cc4)CC3)c(F)cc2c1=O [Example 141, 6-fluoro-7-[4-(4-fluorophenyl)piperazin-1-yl]-4-oxo-1-[3-(piperidin-1-ylmethyl)phenyl]-8-(trifluoromethoxy)-1,4-dihydroquinoline-3-carboxylic acid] |
| < 500 | CN(C)Cc1ccc(-n2cc(C(=O)O)c(=O)c3cc(F)c(N4CCN(c5ccc(F)cc5)CC4)c(OC(F)(F)Cl)c32)cc1 [Example 155, 8-[chloro(difluoro)methoxy]-1-{4-[(dimethylamino)methyl]phenyl}-6-fluoro-7-[4-(4-fluorophenyl)piperazin-1-yl]-4-oxo-1,4-dihydroquinoline-3-carboxylic acid] |
| < 500 | CCN(CC)Cc1ccc(-n2cc(C(=O)O)c(=O)c3cc(F)c(N4CCN(c5ccccn5)CC4)c(OC(F)(F)F)c32)cc1 [Example 132, 1-{4-[(diethylamino)methyl]phenyl}-6-fluoro-4-oxo-7-(4-pyridin-2-ylpiperazin-1-yl)-8-(trifluoromethoxy)-1,4-dihydroquinoline-3-carboxylic acid] |
| < 500 | CCN(CC)Cc1ccc(-n2cc(C(=O)O)c(=O)c3cc(F)c(N4CCN(c5ncccc5C#N)CC4)c(OC(F)(F)Cl)c32)cc1 [Example 161, 8-[chloro(difluoro)methoxy]-7-[4-(3-cyanopyridin-2-yl)piperazin-1-yl]-1-{4-[(diethylamino)methyl]phenyl}-6-fluoro-4-oxo-1,4-dihydroquinoline-3-carboxylic acid] |
| < 500 | O=C(O)c1cn(-c2ccc(CN3CCCC3)cc2)c2c(OC(F)(F)Cl)c(N3CCN(c4ccccc4)CC3)c(F)cc2c1=O [Example 152, 8-[chloro(difluoro)methoxy]-6-fluoro-4-oxo-7-(4-phenylpiperazin-1-yl)-1-[4-(pyrrolidin-1-ylmethyl)phenyl]-1,4-dihydroquinoline-3-carboxylic acid] |
